Reference: ChEMBL document CHEMBL1201862, “PubChem BioAssay data set” (2004)
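Protocol summary: plate cells (96-well), add compound at 5 concentrations, incubate 48 h, interpolate endpoints linearly. The concentration for 50% growth inhibition is given as GI50.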 The source made the active and inactive calls. Rule as the data show it: active = GI50 up to about 1.1 µM and inactive = higher.

Key:
Assay in all cases: NCI-60 cell line screen, 48 h
OVCAR-3 = tested on: OVCAR-3
SK-MEL-28 = tested on: SK-MEL-28
COLO 205 = tested on: COLO 205
MDA-N = tested on: MDA-N
UO-31 = tested on: UO-31
TK-10 = tested on: TK-10
BT-549 = tested on: BT-549
M14 = tested on: M14
MDA-MB-435 = tested on: MDA-MB-435
EKVX = tested on: EKVX
NCI-H23 = tested on: NCI-H23
Hs-578T = tested on: Hs-578T
SK-MEL-5 = tested on: SK-MEL-5
OVCAR-8 = tested on: OVCAR-8
K562 = tested on: K562
OVCAR-4 = tested on: OVCAR-4
IGROV-1 = tested on: IGROV-1
PC-3 = tested on: PC-3
SK-OV-3 = tested on: SK-OV-3
SNB-19 = tested on: SNB-19

Measured: GI50

OC1(c2ccc(Cl)cc2)c2c(ccc3c2OCO3)C2=NCCN21 (stereo not drawn)
inactive: OVCAR-3 54.6 µM | SK-MEL-28 17.9 µM | COLO 205 18.3 µM | MDA-N 28.6 µM | UO-31 38.5 µM | TK-10 15 µM | BT-549 32.3 µM | M14 16.6 µM | MDA-MB-435 28.1 µM | EKVX 75 µM | NCI-H23 63 µM | Hs-578T 20.8 µM | SK-MEL-5 17.2 µM | OVCAR-8 67.5 µM | K562 26.2 µM | OVCAR-4 45.8 µM | IGROV-1 20.5 µM | PC-3 42.7 µM | SK-OV-3 68.1 µM | SNB-19 73.6 µM

C=CCOC1=C(OC(C)=O)C(C2COC(C)(C)O2)OC1=O (stereo not drawn)
inactive: OVCAR-3 17.9 µM | SK-MEL-28 22.2 µM | COLO 205 20 µM | MDA-N 29.7 µM | UO-31 18.6 µM | TK-10 29.7 µM | BT-549 27.4 µM | M14 21.2 µM | MDA-MB-435 21.9 µM | EKVX 20.1 µM | NCI-H23 17.8 µM | Hs-578T 33.4 µM | SK-MEL-5 16.9 µM | OVCAR-8 38.8 µM | K562 18 µM | OVCAR-4 21.5 µM | IGROV-1 31.6 µM | PC-3 70 µM | SK-OV-3 > 100 µM | SNB-19 > 100 µM

O=C1C=CC(O)(C#CCO)C=C1
inactive: OVCAR-3 17 µM | SK-MEL-28 12.9 µM | COLO 205 6.85 µM | MDA-N 8.57 µM | UO-31 13.5 µM | TK-10 13.1 µM | BT-549 12 µM | M14 19.5 µM | MDA-MB-435 12.4 µM | EKVX 18.4 µM | NCI-H23 16.9 µM | Hs-578T 29.2 µM | SK-MEL-5 24.3 µM | OVCAR-8 13.3 µM | K562 2.92 µM | OVCAR-4 11.9 µM | IGROV-1 13 µM | PC-3 16.9 µM | SK-OV-3 58.1 µM | SNB-19 22 µM

O=C(c1ccco1)C1CC(c2ccc3ccccc3c2O)=NN1 (stereo not drawn)
inactive: OVCAR-3 57.3 µM | SK-MEL-28 > 100 µM | COLO 205 66.1 µM | MDA-N 59.4 µM | UO-31 89.7 µM | TK-10 > 100 µM | BT-549 > 100 µM | M14 54.8 µM | MDA-MB-435 56.6 µM | NCI-H23 > 100 µM | Hs-578T > 100 µM | SK-MEL-5 89.5 µM | OVCAR-8 83.2 µM | K562 38.6 µM | OVCAR-4 > 100 µM | IGROV-1 > 100 µM | PC-3 70.8 µM | SK-OV-3 > 100 µM

O=S(=O)(O)c1cc(S(=O)(=O)O)c2c(/N=N/c3ccccc3)c(O)ccc2c1
inactive: OVCAR-3 > 100 µM | SK-MEL-28 > 100 µM | COLO 205 > 100 µM | MDA-N > 100 µM | UO-31 > 100 µM | TK-10 > 100 µM | BT-549 > 100 µM | M14 > 100 µM | MDA-MB-435 > 100 µM | NCI-H23 > 100 µM | Hs-578T > 100 µM | SK-MEL-5 > 100 µM | OVCAR-8 > 100 µM | K562 > 100 µM | OVCAR-4 > 100 µM | IGROV-1 > 100 µM | PC-3 > 100 µM | SK-OV-3 > 100 µM | SNB-19 > 100 µM

CCCCCC[C@H]1C(=O)O[C@H](C)[C@H](NC(=O)c2cccc(NC=O)c2OC)C(=O)O[C@@H](C)[C@@H]1OC(=O)C(C)CC.CCCCCC[C@H]1C(=O)O[C@H](C)[C@H](NC(=O)c2cccc(NC=O)c2OC)C(=O)O[C@@H](C)[C@@H]1OC(=O)CC(C)C (stereo partly drawn)
inactive: OVCAR-3 6.71 µM | SK-MEL-28 > 100 µM | COLO 205 7.62 µM | MDA-N 13.2 µM | UO-31 46.8 µM | TK-10 16 µM | BT-549 27 µM | M14 39.7 µM | MDA-MB-435 11.6 µM | EKVX 7.62 µM | NCI-H23 8.49 µM | Hs-578T 12.1 µM | SK-MEL-5 5.15 µM | OVCAR-8 11.6 µM | K562 7.85 µM | OVCAR-4 5.41 µM | PC-3 6.28 µM | SK-OV-3 15.3 µM

O=c1c2cc(-c3ccccc3)sc2nc2n1N=C(c1ccccc1)CS2
inactive: OVCAR-3 18.2 µM | SK-MEL-28 23.6 µM | COLO 205 79.3 µM | MDA-N 34.9 µM | UO-31 62.2 µM | TK-10 40.3 µM | BT-549 18.4 µM | MDA-MB-435 37.5 µM | EKVX 24.9 µM | NCI-H23 76 µM | Hs-578T 8.63 µM | SK-MEL-5 20.6 µM | OVCAR-8 32.1 µM | K562 > 100 µM | OVCAR-4 15.8 µM | IGROV-1 > 10 µM | PC-3 28.9 µM | SK-OV-3 10.6 µM

O=C1NN=C2C=C(c3ccc(Cl)cc3)CC(c3cccc(Cl)c3)C12 (stereo not drawn)
inactive: OVCAR-3 29.5 µM | COLO 205 16.8 µM | MDA-N 23.4 µM | UO-31 19.3 µM | TK-10 20.1 µM | BT-549 58.2 µM | M14 38.3 µM | MDA-MB-435 19.1 µM | EKVX 22.1 µM | NCI-H23 32.2 µM | Hs-578T 19.9 µM | SK-MEL-5 18.5 µM | OVCAR-8 45.4 µM | K562 17.1 µM | OVCAR-4 17.2 µM | IGROV-1 19.6 µM | PC-3 31.8 µM | SK-OV-3 25.1 µM | SNB-19 15.1 µM

O=[N+]([O-])c1ccc(/C(=C\c2ccccc2)Cn2ccnc2)cc1
inactive: SK-MEL-28 59.6 µM | COLO 205 15 µM | MDA-N 25.4 µM | UO-31 13.6 µM | TK-10 32.7 µM | BT-549 25.6 µM | M14 36.9 µM | MDA-MB-435 34.4 µM | EKVX 43.9 µM | NCI-H23 26.5 µM | Hs-578T 29.1 µM | SK-MEL-5 29.9 µM | OVCAR-8 35.9 µM | K562 17.8 µM | OVCAR-4 40.5 µM | IGROV-1 24.6 µM | PC-3 24.8 µM | SK-OV-3 38.4 µM | SNB-19 57.9 µM

CCOC(=O)c1cc(C(=O)c2ccccc2)n2nc(-c3ccc(Cl)cc3)ccc12
inactive: SK-MEL-28 28.4 µM | COLO 205 50.7 µM | MDA-N 48.8 µM | UO-31 14.1 µM | TK-10 19.3 µM | BT-549 18.1 µM | M14 31.8 µM | MDA-MB-435 33.6 µM | EKVX 21.8 µM | NCI-H23 27 µM | Hs-578T 17.5 µM | SK-MEL-5 17.4 µM | K562 > 100 µM | OVCAR-4 16.6 µM | IGROV-1 18.7 µM | PC-3 15.5 µM | SK-OV-3 17 µM | SNB-19 16.4 µM

CCOC(=O)c1c(-c2ccc(Br)cc2)ccn1C
inactive: OVCAR-3 > 10 µM | SK-MEL-28 > 10 µM | COLO 205 > 10 µM | MDA-N > 10 µM | TK-10 > 10 µM | BT-549 > 10 µM | M14 > 10 µM | MDA-MB-435 > 10 µM | EKVX > 10 µM | NCI-H23 > 10 µM | Hs-578T > 10 µM | SK-MEL-5 > 10 µM | OVCAR-8 > 10 µM | K562 > 10 µM | OVCAR-4 > 10 µM | IGROV-1 > 10 µM | PC-3 > 10 µM | SK-OV-3 > 10 µM | SNB-19 > 10 µM
